The text below walks through data of ChEMBL document CHEMBL6121019, “Design, synthesis and biological evaluation of bisnoralcohol derivatives as novel IRF4 inhibitors for the treatment of multiple myeloma” (Eur J Med Chem, 2025).

This assay concerns the target T1, Interferon regulatory factor 4 (Homo sapiens, UniProt Q15306).
T1 sequence (Q15306 whole entry): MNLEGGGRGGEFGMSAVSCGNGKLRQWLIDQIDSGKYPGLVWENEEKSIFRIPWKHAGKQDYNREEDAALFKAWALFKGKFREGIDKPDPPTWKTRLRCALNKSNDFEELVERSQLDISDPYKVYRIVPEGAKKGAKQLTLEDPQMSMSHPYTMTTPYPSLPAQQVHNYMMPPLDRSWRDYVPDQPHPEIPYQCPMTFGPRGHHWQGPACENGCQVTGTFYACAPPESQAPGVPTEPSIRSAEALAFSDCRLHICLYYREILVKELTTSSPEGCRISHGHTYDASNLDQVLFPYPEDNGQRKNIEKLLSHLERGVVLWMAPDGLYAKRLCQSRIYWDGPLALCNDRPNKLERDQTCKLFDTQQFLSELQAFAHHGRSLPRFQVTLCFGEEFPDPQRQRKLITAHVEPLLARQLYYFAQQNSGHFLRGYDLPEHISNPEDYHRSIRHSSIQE
Nature of the assay: Inhibition of IRF4 (unknown origin) incubated for 1 hr by fluorescence polarization assay.

The term IC50 denotes the concentration needed to halve the response being measured. A low value points to higher potency. In the case of `C[C@H](CO)[C@H]1CC[C@H]2[C@@H]3CCC4=CC(=O)CC[C@]4(C)[C@H]3CC[C@]12C`, the IC50 is > 20 µM.
Consider `COc1ccc(NC(=O)[C@@H](C)[C@H]2CC[C@H]3[C@@H]4C(=O)C=C5C(C)(C)C(=O)C(C#N)=C[C@]5(C)[C@H]4CC[C@]23C)cc1OC`, for which the IC50 came out at 18.8 µM.
Then `C=CCNC(=O)[C@@H](C)[C@H]1CC[C@H]2[C@@H]3C(=O)C=C4C(C)(C)C(=O)C(C#N)=C[C@]4(C)[C@H]3CC[C@]12C`, with > 20 µM; and `C[C@H](C(=O)Oc1ccccc1)[C@H]1CC[C@H]2[C@@H]3C(=O)C=C4C(C)(C)C(=O)C(C#N)=C[C@]4(C)[C@H]3CC[C@]12C`, with 8.1 µM; and `C[C@H](C(=O)OC1CCCCC1)[C@H]1CC[C@H]2[C@@H]3C(=O)C=C4C(C)(C)C(=O)C(C#N)=C[C@]4(C)[C@H]3CC[C@]12C`, with > 20 µM.
The compound `C[C@H](C(=O)Nc1cncnc1)[C@H]1CC[C@H]2[C@@H]3C(=O)C=C4C(C)(C)C(=O)C(C#N)=C[C@]4(C)[C@H]3CC[C@]12C` came in with an IC50 of 9.65 µM.
The same measure for `COc1ccccc1NC(=O)[C@@H](C)[C@H]1CC[C@H]2[C@@H]3C(=O)C=C4C(C)(C)C(=O)C(C#N)=C[C@]4(C)[C@H]3CC[C@]12C`: 10.4 µM.
Then `C[C@H](C(=O)Nc1ccc(Cl)cc1)[C@H]1CC[C@H]2[C@@H]3C(=O)C=C4C(C)(C)C(=O)C(C#N)=C[C@]4(C)[C@H]3CC[C@]12C`, with > 20 µM; and `COc1cc(NC(=O)[C@@H](C)[C@H]2CC[C@H]3[C@@H]4C(=O)C=C5C(C)(C)C(=O)C(C#N)=C[C@]5(C)[C@H]4CC[C@]23C)cc(OC)c1OC`, with 6.95 µM; and `COc1cccc(NC(=O)[C@@H](C)[C@H]2CC[C@H]3[C@@H]4C(=O)C=C5C(C)(C)C(=O)C(C#N)=C[C@]5(C)[C@H]4CC[C@]23C)c1`, with 5.43 µM.
For `C[C@H](C(=O)NC1CCCC1)[C@H]1CC[C@H]2[C@@H]3C(=O)C=C4C(C)(C)C(=O)C(C#N)=C[C@]4(C)[C@H]3CC[C@]12C`, the IC50 was > 20 µM.
Then `C[C@H](C(=O)O)[C@H]1CC[C@H]2[C@@H]3C(=O)C=C4C(C)(C)C(=O)C=C[C@]4(C)[C@H]3CC[C@]12C`, with > 20 µM; and `C[C@H](C(=O)OC1CCCC1)[C@H]1CC[C@H]2[C@@H]3C(=O)C=C4C(C)(C)C(=O)C(C#N)=C[C@]4(C)[C@H]3CC[C@]12C`, with > 20 µM; and `COC(=O)[C@@H](C)[C@H]1CC[C@H]2[C@@H]3C(=O)C=C4C(C)(C)C(=O)C(C#N)=C[C@]4(C)[C@H]3CC[C@]12C`, with > 20 µM.
Then `COc1ccc(OC(=O)[C@@H](C)[C@H]2CC[C@H]3[C@@H]4C(=O)C=C5C(C)(C)C(=O)C(C#N)=C[C@]5(C)[C@H]4CC[C@]23C)cc1`, with 9.37 µM.
`C[C@H](C(=O)Nc1ccc2nccnc2c1)[C@H]1CC[C@H]2[C@@H]3C(=O)C=C4C(C)(C)C(=O)C(C#N)=C[C@]4(C)[C@H]3CC[C@]12C`: the IC50 turned out to be 5.62 µM.
Then `C[C@H](CO)[C@H]1CC[C@H]2[C@@H]3C(=O)C=C4C(C)(C)C(=O)C(C#N)=C[C@]4(C)[C@H]3CC[C@]12C`, with > 20 µM; and `COc1ccc(NC(=O)CCC[C@@H](C)[C@H]2CC[C@H]3[C@@H]4C(=O)C=C5C(C)(C)C(=O)C(C#N)=C[C@]5(C)[C@H]4CC[C@]23C)cc1`, with > 20 µM; and `CCOC(=O)[C@@H](C)[C@H]1CC[C@H]2[C@@H]3C(=O)C=C4C(C)(C)C(=O)C(C#N)=C[C@]4(C)[C@H]3CC[C@]12C`, with > 20 µM.
Then `COc1ccc(NC(=O)C[C@@H](C)[C@H]2CC[C@H]3[C@@H]4C(=O)C=C5C(C)(C)C(=O)C(C#N)=C[C@]5(C)[C@H]4CC[C@]23C)cc1`, with 15.1 µM; and `C[C@H](C(=O)Oc1ccc(Cl)cc1)[C@H]1CC[C@H]2[C@@H]3C(=O)C=C4C(C)(C)C(=O)C(C#N)=C[C@]4(C)[C@H]3CC[C@]12C`, with > 20 µM.
